Source: the supplement of paper PMC10307832

How the values were obtained:
Test in all cases: relative viability (nuclei count vs DMSO), 5 days (fraction); higher = more cells survive
[1] = compound: CC1=CC=C(C=C1)C(=O)CN2C3=C(CCCC3)SC2=N [Pifithrin_alpha] + CS(=O)(=O)CCNCc1ccc(-c2ccc3ncnc(Nc4ccc(OCc5cccc(F)c5)c(Cl)c4)c3c2)o1 [Lapatinib] (partner 2 µM)
In short: (§1)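 For relative viability, nuclei counts in treated wells were divided by those in vehicle wells. Lung cancer cell lines had been pin-tool dosed in 1536-well plates the day after seeding and cultured for 5 days, then fixed and stained in one step (final 0.05% Triton X-100, 1% formaldehyde, 1 ug/ml Hoechst) and imaged at 4×. Doses were one drug alone or a fixed anchor-drug dose plus five library-drug doses (not always all listed) in √10 steps, and values are duplicate-plate medians.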

[2] = compound: Nc1nc(Nc2ccc3c(c2)CC[C@@H](N2CCCC2)CC3)nn1-c1cc2c(nn1)-c1ccccc1CCC2 [Bemcentinib] + CS(=O)(=O)N1CCN(Cc2cc3nc(-c4cccc5[nH]ncc45)nc(N4CCOCC4)c3s2)CC1 [Pictilisib] (partner 1 µM)
In short: as §1

[3] = compound: CC1=CC=C(C=C1)C(=O)CN2C3=C(CCCC3)SC2=N [Pifithrin_alpha] + NC(=O)Nc1cc(-c2cccc(F)c2)sc1C(=O)N[C@H]1CCCNC1 [AZD7762] (partner 0.2 µM)
In short: as §1

[4] = compound: CC1=CC=C(C=C1)C(=O)CN2C3=C(CCCC3)SC2=N [Pifithrin_alpha] + CCNC(=O)c1noc(-c2cc(C(C)C)c(O)cc2O)c1-c1ccc(CN2CCOCC2)cc1 [Luminespib] (partner 0.01 µM)
In short: as §1

Work on EKVX yielded a relative viability ([1]; first compound 1 µM) of 0.167, a relative viability ([1]; first compound 3.162 µM) of 0.16 and a relative viability ([1]; first compound 10 µM) of 0.139. For the same cell line, the relative viability ([1]; first compound 31.62 µM) was 0.181, the relative viability ([1]; first compound 100 µM) was 0.14 and the relative viability ([2]; first compound 0.04 µM) was 0.404. The relative viability ([2]; first compound 0.1265 µM) was 0.474, the relative viability ([2]; first compound 0.4 µM) was 0.503 and the relative viability ([2]; first compound 1.265 µM) was 0.436. For the same cell line, the relative viability ([2]; first compound 4 µM) was 0.451, the relative viability ([3]; first compound 1 µM) was 0.685 and the relative viability ([3]; first compound 3.162 µM) was 0.562. For the same cell line, the relative viability ([3]; first compound 10 µM) was 0.592, the relative viability ([3]; first compound 31.62 µM) was 0.463 and the relative viability ([3]; first compound 100 µM) was 0.424. It also gave a relative viability ([4]; first compound 1 µM) of 0.885, a relative viability ([4]; first compound 10 µM) of 0.826 and a relative viability ([4]; first compound 31.62 µM) of 0.726. For the same cell line, the relative viability ([4]; first compound 100 µM) was 0.769.

RERF-LC-KJ was tested, and the relative viability ([1]; first compound 1 µM) was 0.819, the relative viability ([1]; first compound 3.162 µM) was 0.865 and the relative viability ([1]; first compound 10 µM) was 0.836. The relative viability ([1]; first compound 31.62 µM) was 0.747, the relative viability ([1]; first compound 100 µM) was 0.768 and the relative viability ([2]; first compound 0.04 µM) was 0.535. The relative viability ([2]; first compound 0.1265 µM) was 0.575, the relative viability ([2]; first compound 0.4 µM) was 0.652 and the relative viability ([2]; first compound 1.265 µM) was 0.562. For the same cell line, the relative viability ([2]; first compound 4 µM) was 0.572, the relative viability ([3]; first compound 1 µM) was 0.628 and the relative viability ([3]; first compound 3.162 µM) was 0.882. The relative viability ([3]; first compound 10 µM) was 0.941, the relative viability ([3]; first compound 31.62 µM) was 0.981 and the relative viability ([3]; first compound 100 µM) was 0.854. It also gave a relative viability ([4]; first compound 1 µM) of 1.3, a relative viability ([4]; first compound 3.162 µM) of 1.25 and a relative viability ([4]; first compound 10 µM) of 0.959. It also gave a relative viability ([4]; first compound 31.62 µM) of 0.512 and a relative viability ([4]; first compound 100 µM) of 0.44.

For LK-2, the relative viability ([1]; first compound 1 µM) was 0.893, the relative viability ([1]; first compound 3.162 µM) was 1.18 and the relative viability ([1]; first compound 10 µM) was 0.969. It also gave a relative viability ([1]; first compound 100 µM) of 1.47, a relative viability ([2]; first compound 0.04 µM) of 0.526 and a relative viability ([2]; first compound 0.1265 µM) of 0.608. It also gave a relative viability ([2]; first compound 0.4 µM) of 0.583, a relative viability ([2]; first compound 1.265 µM) of 0.748 and a relative viability ([2]; first compound 4 µM) of 0.611. The relative viability ([3]; first compound 1 µM) was 0.301, the relative viability ([3]; first compound 3.162 µM) was 0.571 and the relative viability ([3]; first compound 10 µM) was 0.58. The relative viability ([3]; first compound 100 µM) was 0.346, the relative viability ([4]; first compound 1 µM) was 0.219 and the relative viability ([4]; first compound 3.162 µM) was 0.179. It also gave a relative viability ([4]; first compound 10 µM) of 0.171 and a relative viability ([4]; first compound 100 µM) of 0.229.

In the case of NCI-H1666, the relative viability ([1]; first compound 1 µM) is reported as 0.503, the relative viability ([1]; first compound 3.162 µM) is reported as 0.405 and the relative viability ([1]; first compound 10 µM) is reported as 0.286. It also gave a relative viability ([1]; first compound 31.62 µM) of 0.337, a relative viability ([1]; first compound 100 µM) of 0.365 and a relative viability ([2]; first compound 0.04 µM) of 0.313. For the same cell line, the relative viability ([2]; first compound 0.1265 µM) was 0.596, the relative viability ([2]; first compound 0.4 µM) was 0.427 and the relative viability ([2]; first compound 1.265 µM) was 0.43. It also gave a relative viability ([2]; first compound 4 µM) of 0.55, a relative viability ([3]; first compound 1 µM) of 0.767 and a relative viability ([3]; first compound 3.162 µM) of 0.717. The relative viability ([3]; first compound 10 µM) was 0.677, the relative viability ([3]; first compound 31.62 µM) was 0.581 and the relative viability ([3]; first compound 100 µM) was 0.491. For the same cell line, the relative viability ([4]; first compound 1 µM) was 1.05, the relative viability ([4]; first compound 3.162 µM) was 1.01 and the relative viability ([4]; first compound 10 µM) was 0.877. It also gave a relative viability ([4]; first compound 31.62 µM) of 0.821 and a relative viability ([4]; first compound 100 µM) of 0.645.

Work on NCI-H1755 yielded a relative viability ([1]; first compound 1 µM) of 0.96, a relative viability ([1]; first compound 3.162 µM) of 1.01 and a relative viability ([1]; first compound 10 µM) of 0.966. For the same cell line, the relative viability ([1]; first compound 31.62 µM) was 0.812, the relative viability ([1]; first compound 100 µM) was 1.23 and the relative viability ([2]; first compound 0.04 µM) was 0.331. For the same cell line, the relative viability ([2]; first compound 0.1265 µM) was 0.459, the relative viability ([2]; first compound 0.4 µM) was 0.496 and the relative viability ([2]; first compound 1.265 µM) was 0.485. For the same cell line, the relative viability ([2]; first compound 4 µM) was 0.443, the relative viability ([3]; first compound 1 µM) was 0.433 and the relative viability ([3]; first compound 3.162 µM) was 0.498. It also gave a relative viability ([3]; first compound 10 µM) of 0.46, a relative viability ([3]; first compound 31.62 µM) of 0.41 and a relative viability ([3]; first compound 100 µM) of 0.434. The relative viability ([4]; first compound 1 µM) was 0.5, the relative viability ([4]; first compound 3.162 µM) was 0.601 and the relative viability ([4]; first compound 10 µM) was 0.562. The relative viability ([4]; first compound 31.62 µM) was 0.315 and the relative viability ([4]; first compound 100 µM) was 0.272.

Cell Line PC-14 has a relative viability ([1]; first compound 1 µM) of 0.337, a relative viability ([1]; first compound 3.162 µM) of 0.32 and a relative viability ([1]; first compound 10 µM) of 0.265. For the same cell line, the relative viability ([1]; first compound 31.62 µM) was 0.271, the relative viability ([1]; first compound 100 µM) was 0.15 and the relative viability ([2]; first compound 0.04 µM) was 0.651. For the same cell line, the relative viability ([2]; first compound 0.1265 µM) was 0.792, the relative viability ([2]; first compound 0.4 µM) was 0.628 and the relative viability ([2]; first compound 1.265 µM) was 0.509. The relative viability ([2]; first compound 4 µM) was 0.704, the relative viability ([3]; first compound 1 µM) was 0.217 and the relative viability ([3]; first compound 3.162 µM) was 0.194. For the same cell line, the relative viability ([3]; first compound 10 µM) was 0.251, the relative viability ([3]; first compound 31.62 µM) was 0.213 and the relative viability ([3]; first compound 100 µM) was 0.263. It also gave a relative viability ([4]; first compound 1 µM) of 0.134, a relative viability ([4]; first compound 3.162 µM) of 0.147 and a relative viability ([4]; first compound 10 µM) of 0.149. It also gave a relative viability ([4]; first compound 31.62 µM) of 0.0887 and a relative viability ([4]; first compound 100 µM) of 0.0663.

Cell Line NCI-H2405 has a relative viability ([1]; first compound 3.162 µM) of 0.975, a relative viability ([1]; first compound 10 µM) of 0.991 and a relative viability ([1]; first compound 31.62 µM) of 0.882. For the same cell line, the relative viability ([1]; first compound 100 µM) was 0.975, the relative viability ([2]; first compound 0.04 µM) was 0.392 and the relative viability ([2]; first compound 0.1265 µM) was 0.513. For the same cell line, the relative viability ([2]; first compound 0.4 µM) was 0.415, the relative viability ([2]; first compound 1.265 µM) was 0.517 and the relative viability ([2]; first compound 4 µM) was 0.509. The relative viability ([3]; first compound 3.162 µM) was 0.654, the relative viability ([3]; first compound 10 µM) was 0.651 and the relative viability ([3]; first compound 31.62 µM) was 0.579. For the same cell line, the relative viability ([3]; first compound 100 µM) was 0.615, the relative viability ([4]; first compound 1 µM) was 0.757 and the relative viability ([4]; first compound 3.162 µM) was 0.571. For the same cell line, the relative viability ([4]; first compound 10 µM) was 0.536, the relative viability ([4]; first compound 31.62 µM) was 0.668 and the relative viability ([4]; first compound 100 µM) was 0.515.

Work on NCI-H1395 yielded a relative viability ([1]; first compound 3.162 µM) of 0.797, a relative viability ([1]; first compound 10 µM) of 0.967 and a relative viability ([1]; first compound 31.62 µM) of 0.663. It also gave a relative viability ([1]; first compound 100 µM) of 0.814, a relative viability ([2]; first compound 0.04 µM) of 0.787 and a relative viability ([2]; first compound 0.1265 µM) of 0.619. For the same cell line, the relative viability ([2]; first compound 0.4 µM) was 0.83, the relative viability ([2]; first compound 1.265 µM) was 0.612 and the relative viability ([2]; first compound 4 µM) was 0.674. The relative viability ([3]; first compound 3.162 µM) was 0.385, the relative viability ([3]; first compound 10 µM) was 0.397 and the relative viability ([3]; first compound 100 µM) was 0.361. For the same cell line, the relative viability ([4]; first compound 1 µM) was 0.704, the relative viability ([4]; first compound 3.162 µM) was 0.518 and the relative viability ([4]; first compound 10 µM) was 0.631. It also gave a relative viability ([4]; first compound 31.62 µM) of 0.663 and a relative viability ([4]; first compound 100 µM) of 0.657.

For NCI-H596, the relative viability ([1]; first compound 1 µM) was 0.9, the relative viability ([1]; first compound 3.162 µM) was 0.934 and the relative viability ([1]; first compound 10 µM) was 1.02. It also gave a relative viability ([1]; first compound 31.62 µM) of 0.915, a relative viability ([1]; first compound 100 µM) of 1.07 and a relative viability ([2]; first compound 0.04 µM) of 0.374. The relative viability ([2]; first compound 0.1265 µM) was 0.443, the relative viability ([2]; first compound 0.4 µM) was 0.379 and the relative viability ([2]; first compound 1.265 µM) was 0.421. The relative viability ([2]; first compound 4 µM) was 0.403, the relative viability ([3]; first compound 1 µM) was 1.18 and the relative viability ([3]; first compound 3.162 µM) was 0.967. It also gave a relative viability ([3]; first compound 10 µM) of 0.926, a relative viability ([3]; first compound 31.62 µM) of 0.939 and a relative viability ([3]; first compound 100 µM) of 1.03. The relative viability ([4]; first compound 1 µM) was 0.991, the relative viability ([4]; first compound 3.162 µM) was 1.1 and the relative viability ([4]; first compound 10 µM) was 1.02. The relative viability ([4]; first compound 31.62 µM) was 0.507 and the relative viability ([4]; first compound 100 µM) was 0.566.
